According to patent publication US20230157996A1, “SMALL-MOLECULE INHIBITOR TARGETING EB VIRUS NUCLEAR ANTIGEN PROTEIN, PREPARATION METHOD AND USE THEREOF” (priority 2020, published 2023):

System: C666-1 cells
Test: C666-1 cell viability single concentration (50 μM) inhibition rate (Resazurin)
Assay type: cell-based
Settings: Homo sapiens, C6661, 72 h, 50 μM compound, 72 hours, C666-1 cells; read-out: C666-1 cell viability single concentration (50 μM) inhibition rate, Ratio* (Inh %)
Method in brief: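 Resazurin fluorescence (560/590 nm, 3 h development) gave the proliferation inhibition rate, normalised to DMSO-treated and cell-free blank wells. Compound was tested at a single 50 μmol/L final concentration on C666-1 cells for 72 h at 37° C, with duplicate wells, after 24 h seeding.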

| Structure (SMILES) | inhibition at 50 µM |
| --- | --- |
| CCCNC(=S)Nc1ccc(OC2CN(c3cccc(C(=O)OC)c3-n3cccc3)C2)cc1 [Example 117, Methyl 3-(3-(4-(3-propylthioureido)phenoxy)azetidin-1-yl)-2-(1H-pyrrol-1-yl)benzoate] | > 50% |
| COC(=O)c1cccc(N2CC(Oc3ccc(NC(=S)Nc4ccc(C(F)(F)F)cc4)cc3)C2)c1-n1cccc1 [Example 118, Methyl 2-(1H-pyrrol-1-yl)-3-(3-(4-(3-(4-(trifluoromethyl)phenyl)thioureido)phenoxy)azetidin-1-yl)benzoate] | > 50% |
| COC(=O)c1cccc(N2CC(Oc3ccc(NC(=S)Nc4ccccc4OC)cc3)C2)c1-n1cccc1 [Example 119, Methyl 3-(3-(4-(3-(2-methoxyphenyl)thioureido)phenoxy)azetidin-1-yl)-2-(1H-pyrrol-1-yl)benzoate] | 10 to 30% |
| COC(=O)c1cccc(N2CC(Oc3ccc(NC(C)=O)cc3)C2)c1-n1cccc1 [Example 120, Methyl 3-(3-(4-acetylaminophenoxy)azetidin-1-yl)-2-(1H-pyrrol-1-yl)benzoate] | 10 to 30% |
| CC(=O)Nc1ccc(OC2CN(c3cccc(C(=O)O)c3-n3cccc3)C2)cc1 [Example 121, 3-(3-(4-acetylaminophenoxy)azetidin-1-yl)-2-(1H-pyrrol-1-yl)benzoic acid] | < 10% |
| COC(=O)c1cccc(N2CC(Oc3ccc(NC(=O)c4cccs4)cc3)C2)c1-n1cccc1 [Example 122, Methyl 2-(1H-pyrrol-1-yl)-3-(3-(4-(thiophene-2-formamido)phenoxy)azetidin-1-yl)benzoate] | 10 to 30% |
| O=C(Nc1ccc(OC2CN(c3cccc(C(=O)O)c3-n3cccc3)C2)cc1)c1cccs1 [Example 123, 2-(1H-pyrrol-1-yl)-3-(3-(4-(thiophene-2-formamido)phenoxy)azetidin-1-yl)benzoic acid] | < 10% |
| COC(=O)c1cccc(N2CC(Oc3ccc(N(S(C)(=O)=O)S(C)(=O)=O)cc3)C2)c1-n1cccc1 [Example 124, Methyl 3-(3-(4-(N-(mesyl)methylsulfonamido)phenoxy)azetidin-1-yl)-2-(1H-pyrrol-1-yl)benzoate] | 10 to 30% |
| CS(=O)(=O)Nc1ccc(OC2CN(c3cccc(C(=O)O)c3-n3cccc3)C2)cc1 [Example 125, 3-(3-(4-(methylsulfonamido)phenoxy)azetidin-1-yl)-2-(1H-pyrrol-1-yl)benzoic acid] | < 10% |
| COC(=O)c1cccc(N2CC(Oc3ccc(NS(=O)(=O)C4CC4)cc3)C2)c1-n1cccc1 [Example 126, Methyl 3-(3-(4-(cyclopropylsulfonamido)phenoxy)azetidin-1-yl)-2-(1H-pyrrol-1-yl)benzoate] | > 50% |
| O=C(O)c1cccc(N2CC(Oc3ccc(NS(=O)(=O)C4CC4)cc3)C2)c1-n1cccc1 [Example 127, 3-(3-(4-(cyclopropylsulfonamido)phenoxy)azetidin-1-yl)-2-(1H-pyrrol-1-yl)benzoic acid] | < 10% |
| COC(=O)c1cccc(N2CC(Oc3ccc(NC(=O)Nc4ccc(Cl)cc4)cc3)C2)c1-n1cccc1 [Example 128, Methyl 3-(3-(4-(3-(4-chlorophenyl)ureido)phenoxy)azetidin-1-yl)-2-(1H-pyrrol-1-yl)benzoate] | < 10% |
| O=C(Nc1ccc(Cl)cc1)Nc1ccc(OC2CN(c3cccc(C(=O)O)c3-n3cccc3)C2)cc1 [Example 129, 3-(3-(4-(3-(4-chlorophenyl)ureido)phenoxy)azetidin-1-yl)-2-(1H-pyrrol-1-yl)benzoic acid] | < 10% |
| COC(=O)c1cccc(N2CC(Oc3ccc(NC(=O)NC4CCCCC4)cc3)C2)c1-n1cccc1 [Example 130, Methyl 3-(3-(4-(3-cyclohexylureido)phenoxy)azetidin-1-yl)-2-(1H-pyrrol-1-yl)benzoate] | < 10% |
| O=C(Nc1ccc(OC2CN(c3cccc(C(=O)O)c3-n3cccc3)C2)cc1)NC1CCCCC1 [Example 131, 3-(3-(4-(3-cyclohexylureido)phenoxy)azetidin-1-yl)-2-(1H-pyrrol-1-yl)benzoic acid] | < 10% |
| CCCCCCNC(=O)Nc1ccc(OC2CN(c3cccc(C(=O)OC)c3-n3cccc3)C2)cc1 [Example 132, Methyl 3-(3-(4-(3-hexylureido)phenoxy)azetidin-1-yl)-2-(1H-pyrrol-1-yl)benzoate] | < 10% |
| COC(=O)c1cccc(N2CC(Oc3ccc(NC(=O)Nc4cccc(Cl)c4)cc3)C2)c1-n1cccc1 [Example 133, Methyl 3-(3-(4-(3-(3-chlorophenyl)ureido)phenoxy)azetidin-1-yl)-2-(1H-pyrrol-1-yl)benzoate] | > 50% |
| O=C(Nc1ccc(OC2CN(c3cccc(C(=O)O)c3-n3cccc3)C2)cc1)Nc1cccc(Cl)c1 [Example 134, 3-(3-(4-(3-(3-chlorophenyl)ureido)phenoxy)azetidin-1-yl)-2-(1H-pyrrol-1-yl)benzoic acid] | 10 to 30% |
| COC(=O)c1cccc(N2CC(Oc3ccc(NC(=O)Nc4ccccc4Cl)cc3)C2)c1-n1cccc1 [Example 135, Methyl 3-(3-(4-(3-(2-chlorophenyl)ureido)phenoxy)azetidin-1-yl)-2-(1H-pyrrol-1-yl)benzoate] | < 10% |
| O=C(Nc1ccc(OC2CN(c3cccc(C(=O)O)c3-n3cccc3)C2)cc1)Nc1ccccc1Cl [Example 136, 3-(3-(4-(3-(2-chlorophenyl)ureido)phenoxy)azetidin-1-yl)-2-(1H-pyrrol-1-yl)benzoic acid] | < 10% |

| Structure (SMILES) | inhibition at 50 µM |
| --- | --- |
| COC(=O)c1cccc(N2CC(Oc3ccc(NC(=O)Nc4cccc(C#N)c4)cc3)C2)c1-n1cccc1 [Example 137, Methyl 3-(3-(4-(3-(3-cyanophenyl)ureido)phenoxy)azetidin-1-yl)-2-(1H-pyrrol-1-yl)benzoate] | > 50% |
| N#Cc1cccc(NC(=O)Nc2ccc(OC3CN(c4cccc(C(=O)O)c4-n4cccc4)C3)cc2)c1 [Example 138, 3-(3-(4-(3-(3-cyanophenyl)ureido)phenoxy)azetidin-1-yl)-2-(1H-pyrrol-1-yl)benzoic acid] | < 10% |
| COC(=O)c1cccc(N2CC(OCc3ccc(OC)cc3)C2)c1-n1cccc1 [Example 139, Methyl 3-(3-((4-methoxybenzyl)oxy)azetidin-1-yl)-2-(1H-pyrrol-1-yl)benzoate] | < 10% |
| COC(=O)c1cccc(N2CC(OCc3cscn3)C2)c1-n1cccc1 [Example 140] | 10 to 30% |
| O=C(O)c1cccc(N2CC(OCc3cscn3)C2)c1-n1cccc1 [Example 141] | < 10% |
| COC(=O)c1cccc(N2CC(OCc3cnccn3)C2)c1-n1cccc1 [Example 142] | < 10% |
| O=C(O)c1cccc(N2CC(OCc3cnccn3)C2)c1-n1cccc1 [Example 143] | < 10% |
| COC(=O)c1cccc(N2CC(OCC(=O)Nc3ccccc3)C2)c1-n1cccc1 [Example 144, Methyl 3-(3-(2-oxo-2-(phenylamino)ethoxy)azetidin-1-yl)-2-(1H-pyrrol-1-yl)benzoate] | 10 to 30% |
| O=C(COC1CN(c2cccc(C(=O)O)c2-n2cccc2)C1)Nc1ccccc1 [Example 145, 3-(3-(2-oxo-2-(phenylamino)ethoxy)azetidin-1-yl)-2-(1H-pyrrol-1-yl)benzoic acid] | < 10% |
| O=C(O)c1cccc(N2CC(OC(=S)Nc3ccc(Cl)cc3)C2)c1-n1cccc1 [Example 148, 3-(3-(((4-chlorophenyl)thiocarbamoyl)oxy)azetidin-1-yl)-2-(1H-pyrrol-1-yl)benzoic acid] | < 10% |
| COC(=O)c1cccc(N2CC(OC(=O)NC3CCCCC3)C2)c1-n1cccc1 [Example 149, Methyl 3-(3-((cyclohexylcarbamoyl)oxy)azetidin-1-yl)-2-(1H-pyrrol-1-yl)benzoate] | 10 to 30% |
| O=C(NC1CCCCC1)OC1CN(c2cccc(C(=O)O)c2-n2cccc2)C1 [Example 150, 3-(3-((cyclohexylcarbamoyl)oxy)azetidin-1-yl)-2-(1H-pyrrol-1-yl)benzoic acid] | < 10% |
| COC(=O)c1cccc(N2CC(OC(=O)Nc3ccc(C4CNCCO4)c(F)c3)C2)c1-n1cccc1 (stereo not drawn) [Example 151, Methyl 3-(3-(((3-fluoro-4-(morpholin-2-yl)phenyl)carbamoyl)oxy)azetidin-1-yl)-2-(1H-pyrrol-1-yl)benzoate] | 10 to 30% |
| COC(=O)c1cccc(N2CC(OC(=O)NC3CC3)C2)c1-n1cccc1 [Example 155, Methyl 3-(3-((cyclopropylcarbamoyl)oxy)azetidin-1-yl)-2-(1H-pyrrol-1-yl)benzoate] | 10 to 30% |
| COC(=O)c1cccc(N2CC(OC(=S)Nc3ccc(Br)cc3)C2)c1-n1cccc1 [Example 156, Methyl 3-(3-(((4-bromophenyl)thiocarbamoyl)oxy)azetidin-1-yl)-2-(1H-pyrrol-1-yl)benzoate] | 30 to 50% |
| O=C(O)c1cccc(N2CC(OC(=S)Nc3ccc(Br)cc3)C2)c1-n1cccc1 [Example 157, 3-(3-(((4-bromophenyl)thiocarbamoyl)oxy)azetidin-1-yl)-2-(1H-pyrrol-1-yl)benzoic acid] | < 10% |
| COC(=O)c1cccc(N2CC(OC(=S)Nc3ccc(OC)cc3)C2)c1-n1cccc1 [Example 158, Methyl 3-(3-(((4-methoxyphenyl)thiocarbamoyl)oxy)azetidin-1-yl)-2-(1H-pyrrol-1-yl)benzoate] | > 50% |
| COc1ccc(NC(=S)OC2CN(c3cccc(C(=O)O)c3-n3cccc3)C2)cc1 [Example 159, 3-(3-(((4-methoxyphenyl)thiocarbamoyl)oxy)azetidin-1-yl)-2-(1H-pyrrol-1-yl)benzoic acid] | < 10% |
| CCNC(=S)OC1CN(c2cccc(C(=O)OC)c2-n2cccc2)C1 [Example 160, Methyl 3-(3-((ethylthiocarbamoyl)oxy)azetidin-1-yl)-2-(1H-pyrrol-1-yl)benzoate] | 30 to 50% |
